From the supplement of paper PMC9663587

Experiments:
Ceritinib/LDK378 = compound: Cc1cc(Nc2ncc(Cl)c(Nc3ccccc3S(=O)(=O)C(C)C)n2)c(OC(C)C)cc1C1CCNCC1 [Ceritinib/LDK378]
THZ-P1-2 = compound: CN(C)C/C=C/C(=O)NC1=CC=C(C=C1)C(=O)NC2=CC=CC(=C2)NC3=NC=NC(=C3)C4=CNC5=CC=CC=C54 [THZ-P1-2]
[1] = compound: CCCCOc1c(C(=O)c2c(F)cc(C)cc2F)c[nH]c2nncc1-2
Saracatinib/AZD0530 = compound: CN1CCN(CCOc2cc(OC3CCOCC3)c3c(Nc4c(Cl)ccc5c4OCO5)ncnc3c2)CC1 [Saracatinib/AZD0530]
Luminespib/NVP-AUY922 = compound: CCNC(=O)c1noc(-c2cc(C(C)C)c(O)cc2O)c1-c1ccc(CN2CCOCC2)cc1 [Luminespib/NVP-AUY922]
BSJ-01-175 = compound: CN(C)C/C=C/C(=O)Nc1ccc(O[C@@H]2CCC[C@@H](Nc3ncc(Cl)c(-c4c[nH]c5ccccc45)n3)C2)cc1 [BSJ-01-175]
Neratinib/HKI272 = compound: CCOc1cc2ncc(C#N)c(Nc3ccc(OCc4ccccn4)c(Cl)c3)c2cc1NC(=O)/C=C/CN(C)C [Neratinib/HKI272]; experiment: increase in dead-cell fraction, 72 h; higher = more death;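 further: breast cancer cell lines in 384-well plates, stained with Hoechst plus LIVE/DEAD far red dye and imaged, cells above an LDR intensity threshold counted dead, Hoechst-negative corpses included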
THZ1 = compound: CN(C)C/C=C/C(=O)Nc1ccc(C(=O)Nc2cccc(Nc3ncc(Cl)c(-c4c[nH]c5ccccc45)n3)c2)cc1 [THZ1]; experiment: as above
[2] = compound: CCN1CCN(Cc2ccc(Nc3ncc(F)c(-c4cc(F)c5nc(C)n(C(C)C)c5c4)n3)nc2)CC1; experiment: as above
YKL-5-124 = compound: C=CC(=O)Nc1ccc(C(=O)Nc2[nH]nc3c2CN(C(=O)N[C@H](CN(C)C)c2ccccc2)C3(C)C)cc1 [YKL-5-124]; experiment: as above
THZ531 = compound: CN(C)C/C=C/C(=O)Nc1ccc(C(=O)N2CCC[C@@H](Nc3ncc(Cl)c(-c4c[nH]c5ccccc45)n3)C2)cc1 [THZ531]; experiment: as above
LEE011/Ribociclib = compound: CN(C)C(=O)c1cc2cnc(Nc3ccc(N4CCNCC4)cn3)nc2n1C1CCCC1 [LEE011/Ribociclib]; experiment: as above
[3] = compound: CC(=O)c1c(C)c2cnc(Nc3ccc(N4CCNCC4)cn3)nc2n(C2CCCC2)c1=O; experiment: as above
BSJ-03-123 = compound: CC(=O)c1c(C)c2cnc(Nc3ccc(N4CCN(CCOCCOCCOCCNC(=O)COc5cccc6c5C(=O)N(C5CCC(=O)NC5=O)C6=O)CC4)cn3)nc2n(C2CCCC2)c1=O [BSJ-03-123]; experiment: as above
Flavopiridol = compound: CN1CC[C@H](c2c(O)cc(O)c3c(=O)cc(-c4ccccc4Cl)oc23)[C@H](O)C1 [Flavopiridol]; experiment: as above
[4] = compound: CCc1cnn2c(NCc3ccc[n+]([O-])c3)cc(N3CCCC[C@H]3CCO)nc12; experiment: as above
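Wherever GR50, 72 h is given: breast cancer and non-malignant breast epithelial cell lines, Deep Dye Drop or Dye Drop imaging, nine half-log doses, GR normalized to time-zero plates and DMSO-only controls.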

BT20
GR50, 72 h (Ceritinib/LDK378): 1.53 µM
GR50, 72 h (THZ-P1-2): 6.01 µM
GR50, 72 h [1]: 0.002 µM
GR50, 72 h (Saracatinib/AZD0530): 4.37 µM
GR50, 72 h (Luminespib/NVP-AUY922): 0.00597 µM
GR50, 72 h (BSJ-01-175): 0.0388 µM
increase in dead-cell fraction (Neratinib/HKI272; 0.0003162 µM): -0.0021
increase in dead-cell fraction (Neratinib/HKI272; 0.001 µM): -0.0068
increase in dead-cell fraction (Neratinib/HKI272; 0.003162 µM): 0.001
increase in dead-cell fraction (Neratinib/HKI272; 0.01 µM): 0.004
increase in dead-cell fraction (Neratinib/HKI272; 0.03162 µM): 0.0258
increase in dead-cell fraction (Neratinib/HKI272; 0.1 µM): 0.0444
increase in dead-cell fraction (Neratinib/HKI272; 0.3162 µM): 0.0552
increase in dead-cell fraction (Neratinib/HKI272; 1 µM): 0.0626
increase in dead-cell fraction (Neratinib/HKI272; 3.162 µM): 0.169
increase in dead-cell fraction (THZ1; 0.0001 µM): 0.0002
increase in dead-cell fraction (THZ1; 0.0003162 µM): 0.0003
increase in dead-cell fraction (THZ1; 0.001 µM): -0.0025
increase in dead-cell fraction (THZ1; 0.003162 µM): 0.0002
increase in dead-cell fraction (THZ1; 0.01 µM): -0.0011
increase in dead-cell fraction (THZ1; 0.03162 µM): -0.0033
increase in dead-cell fraction (THZ1; 0.1 µM): -0.0037
increase in dead-cell fraction (THZ1; 0.3162 µM): -0.001
increase in dead-cell fraction (THZ1; 1 µM): 0.212
increase in dead-cell fraction ([2]; 0.001 µM): -0.0036
increase in dead-cell fraction ([2]; 0.003162 µM): -0.0047
increase in dead-cell fraction ([2]; 0.01 µM): -0.0009
increase in dead-cell fraction ([2]; 0.03162 µM): -0.0044
increase in dead-cell fraction ([2]; 0.1 µM): 0.0079
increase in dead-cell fraction ([2]; 0.3162 µM): 0.0034
increase in dead-cell fraction ([2]; 1 µM): 0.0076
increase in dead-cell fraction ([2]; 3.162 µM): 0.0117
increase in dead-cell fraction ([2]; 10 µM): 0.363
increase in dead-cell fraction (YKL-5-124; 0.001 µM): 0.0021
increase in dead-cell fraction (YKL-5-124; 0.003162 µM): 0.0037
increase in dead-cell fraction (YKL-5-124; 0.01 µM): 0.0071
increase in dead-cell fraction (YKL-5-124; 0.03162 µM): 0.0095
increase in dead-cell fraction (YKL-5-124; 0.1 µM): 0.0196
increase in dead-cell fraction (YKL-5-124; 0.3162 µM): 0.01
increase in dead-cell fraction (YKL-5-124; 1 µM): 0.0231
increase in dead-cell fraction (YKL-5-124; 3.162 µM): 0.0292
increase in dead-cell fraction (YKL-5-124; 10 µM): 0.0824
increase in dead-cell fraction (THZ531; 0.0001 µM): -0.0017
increase in dead-cell fraction (THZ531; 0.0003162 µM): 0.0012
increase in dead-cell fraction (THZ531; 0.001 µM): -0.0051
increase in dead-cell fraction (THZ531; 0.003162 µM): 0.0009
increase in dead-cell fraction (THZ531; 0.01 µM): -0.0031
increase in dead-cell fraction (THZ531; 0.03162 µM): -0.0002
increase in dead-cell fraction (THZ531; 0.1 µM): 0.003
increase in dead-cell fraction (THZ531; 0.3162 µM): 0.0032
increase in dead-cell fraction (THZ531; 1 µM): 0.0097
increase in dead-cell fraction (LEE011/Ribociclib; 0.001 µM): 0.002
increase in dead-cell fraction (LEE011/Ribociclib; 0.003162 µM): 0.0029
increase in dead-cell fraction (LEE011/Ribociclib; 0.01 µM): 0.0024
increase in dead-cell fraction (LEE011/Ribociclib; 0.03162 µM): 0.0037
increase in dead-cell fraction (LEE011/Ribociclib; 0.1 µM): 0.0051
increase in dead-cell fraction (LEE011/Ribociclib; 0.3162 µM): 0.0057
increase in dead-cell fraction (LEE011/Ribociclib; 1 µM): 0.0086
increase in dead-cell fraction (LEE011/Ribociclib; 3.162 µM): 0.0145
increase in dead-cell fraction (LEE011/Ribociclib; 10 µM): 0.0266
increase in dead-cell fraction ([3]; 0.0003162 µM): -0.0052
increase in dead-cell fraction ([3]; 0.001 µM): -0.006
increase in dead-cell fraction ([3]; 0.003162 µM): 0.0023
increase in dead-cell fraction ([3]; 0.01 µM): 0.0093
increase in dead-cell fraction ([3]; 0.03162 µM): 0.0193
increase in dead-cell fraction ([3]; 0.1 µM): 0.0353
increase in dead-cell fraction ([3]; 0.3162 µM): 0.0479
increase in dead-cell fraction ([3]; 1 µM): 0.0439
increase in dead-cell fraction ([3]; 3.162 µM): 0.0468
increase in dead-cell fraction (BSJ-03-123; 0.001 µM): -0.0015
increase in dead-cell fraction (BSJ-03-123; 0.003162 µM): 0.0071
increase in dead-cell fraction (BSJ-03-123; 0.01 µM): 0.0034
increase in dead-cell fraction (BSJ-03-123; 0.03162 µM): 0.0088
increase in dead-cell fraction (BSJ-03-123; 0.1 µM): 0.0041
increase in dead-cell fraction (BSJ-03-123; 0.3162 µM): 0.0071
increase in dead-cell fraction (BSJ-03-123; 1 µM): 0.0076
increase in dead-cell fraction (BSJ-03-123; 3.162 µM): 0.008
increase in dead-cell fraction (BSJ-03-123; 10 µM): 0.0323
increase in dead-cell fraction (Flavopiridol; 0.0001 µM): 0.0067
increase in dead-cell fraction (Flavopiridol; 0.0003162 µM): 0.0031
increase in dead-cell fraction (Flavopiridol; 0.001 µM): -0.001
increase in dead-cell fraction (Flavopiridol; 0.003162 µM): -0.0003
increase in dead-cell fraction (Flavopiridol; 0.01 µM): 0.0003
increase in dead-cell fraction (Flavopiridol; 0.03162 µM): 0.0115
increase in dead-cell fraction (Flavopiridol; 0.1 µM): 0.0027
increase in dead-cell fraction (Flavopiridol; 0.3162 µM): 0.0458
increase in dead-cell fraction (Flavopiridol; 1 µM): 0.637
increase in dead-cell fraction ([4]; 0.0001 µM): 0.0075
increase in dead-cell fraction ([4]; 0.0003162 µM): -0.0076
increase in dead-cell fraction ([4]; 0.001 µM): -0.0014
increase in dead-cell fraction ([4]; 0.003162 µM): -0.0106
increase in dead-cell fraction ([4]; 0.01 µM): 0.0127
increase in dead-cell fraction ([4]; 0.03162 µM): 0.456
increase in dead-cell fraction ([4]; 0.1 µM): 0.789
increase in dead-cell fraction ([4]; 0.3162 µM): 0.803
increase in dead-cell fraction ([4]; 1 µM): 0.827
